Columns and labels:
Type in all cases: in vivo
[1] = test system: diamondback moth (Plutella xylostella); test: Insecticidal effect on diamondback moth (Test Example 1); settings: for Insecticidal effect (Test Example 1), judged from mortality / Insecticidal effect, Test Example 1: diamondback moth; for Insecticidal effect (Test Example 1), judged from mortality: judged by the criterion of Test Example 1; for Insecticidal effect on diamondback moth (Test Example 1), judged grade: mortality judged according to the criterion shown in Test Example 1
In short: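 Oviposition by adults on Chinese cabbage seedling; immersion; air-dry; 25° C room. Count of hatched larvae at day 6 post-immersion → mortality → effect graded by criterion. Triplicate, 10 insects/group.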

[2] = test system: common cutworm (Spodoptera Litura); test: Insecticidal effect on common cutworm (Test Example 2); settings: 500 ppm, 25° C.; for Insecticidal effect (Test Example 2), judged from mortality / Insecticidal effect on common cutworm (Test Example 2), judged grade: cabbage leaf dip; for Insecticidal effect (Test Example 2), judged from mortality: 8 days after inoculation; for Insecticidal effect, Test Example 2: cabbage leaf immersed; for Insecticidal effect, Test Example 2 / Insecticidal effect on common cutworm (Test Example 2), judged grade: eight days after inoculation; for Insecticidal effect on common cutworm (Test Example 2), judged grade: second-instar larvae
In short: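 After the treated material air-dries, it goes into a dish, second-instar larvae are added, and the dish is closed. Incubation runs at 25° C. On day eight, dead and living larvae are scored, and the calculated mortality is rated on an effect scale.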

[3] = test system: rice leafroller (Cnaphalocrocis medinalis); test: Insecticidal effect on rice leafroller (Test Example 3); settings: 500 ppm, 25° C., humidity 70%; for Insecticidal effect (Test Example 3), judged from mortality / Insecticidal effect on rice leafroller (Test Example 3), judged grade: rice lamina dip; for Insecticidal effect (Test Example 3), judged from mortality: 4 days after inoculation; for Insecticidal effect, Test Example 3: rice lamina immersed; for Insecticidal effect, Test Example 3 / Insecticidal effect on rice leafroller (Test Example 3), judged grade: four days after inoculation; for Insecticidal effect on rice leafroller (Test Example 3), judged grade: third-instar larvae
In short: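 Insecticidal effect is judged by a predefined criterion from dead/alive counts four days after infesting air-dried lamina with third-instar larvae, kept on moistened filter paper at 25° C, 70% humidity.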

[4] = second-instar larvae of common cutworm
[5] = third-instar larvae of rice leafroller
[6] = judged by the mortality criterion of Test Example 1
[7] = mortality judged by criterion of Test Example 1
[8] = common cutworm second-instar larvae
[9] = rice leafroller third-instar larvae

## CC(C)(C)NC(=O)c1c(I)cccc1C(=O)Nc1ccc(C(F)(C(F)(F)F)C(F)(F)F)cc1Cl [compound 1723]
[1]
  Insecticidal effect (Test Example 1), judged from mortality: A (100)
[2]; [4]
  Insecticidal effect (Test Example 2), judged from mortality: A (100)
[3]; [5]
  Insecticidal effect (Test Example 3), judged from mortality: A (100)

## Cc1cc(Oc2c(F)c(F)c(F)c(F)c2F)ccc1NC(=O)c1cccc(Cl)c1C(=O)NC(C)C [compound 157]
[1]; [6]
  Insecticidal effect, Test Example 1: A (100)
[2]; [4]
  Insecticidal effect, Test Example 2: A (100)
[3]; [5]
  Insecticidal effect, Test Example 3: A (100)

## CCc1cccc(C(=O)NC(C)C)c1C(=O)Nc1ccc(Cl)cc1C [compound 753]
[1]
  Insecticidal effect on diamondback moth (Test Example 1), judged grade: A (100)
[2]
  Insecticidal effect on common cutworm (Test Example 2), judged grade: A (100)
[3]
  Insecticidal effect on rice leafroller (Test Example 3), judged grade: D (79-50)

## CC(C)NC(=O)c1c(I)cccc1C(=O)Nc1ccc2oc(C(F)(F)C(F)(F)C(F)(F)F)nc2c1 [compound 1637]
[1]
  Insecticidal effect (Test Example 1), judged from mortality: A (100)
[2]; [4]
  Insecticidal effect (Test Example 2), judged from mortality: A (100)
[3]; [5]
  Insecticidal effect (Test Example 3), judged from mortality: A (100)

## Cc1c(Br)ccc(NC(=O)c2c(Br)cccc2C(=O)NC(C)C)c1C [compound 312]
[1]; [6]
  Insecticidal effect, Test Example 1: A (100)
[2]; [4]
  Insecticidal effect, Test Example 2: A (100)
[3]; [5]
  Insecticidal effect, Test Example 3: A (100)

## Cc1c(Cl)ccc(NC(=O)c2cccc(Br)c2C(=O)NC(C)C)c1C [compound 269]
[1]; [6]
  Insecticidal effect, Test Example 1: A (100)
[2]; [4]
  Insecticidal effect, Test Example 2: A (100)
[3]; [5]
  Insecticidal effect, Test Example 3: A (100)

## CC(C)(C)NC(=O)c1c(Cl)cccc1C(=O)Nc1ccc(C(O)(C(F)(F)F)C(F)(F)F)cc1 [compound 1053]
[1]; [7]
  Insecticidal effect, Test Example 1: A (100)
[2]; [8]
  Insecticidal effect, Test Example 2: A (100)
[3]; [9]
  Insecticidal effect, Test Example 3: A (100)

## Cc1cc(C(F)(F)C(F)(F)C(F)(F)F)ccc1NC(=O)c1cccc(Br)c1C(=O)NC(C)C [compound 279]
[1]; [6]
  Insecticidal effect, Test Example 1: A (100)
[2]; [4]
  Insecticidal effect, Test Example 2: A (100)
[3]; [5]
  Insecticidal effect, Test Example 3: A (100)

## Cc1cc(OC(F)(F)C(F)F)c(Cl)cc1NC(=O)c1c(I)cccc1C(=O)NC(C)C [compound 454]
[1]
  Insecticidal effect on diamondback moth (Test Example 1), judged grade: A (100)
[2]
  Insecticidal effect on common cutworm (Test Example 2), judged grade: A (100)
[3]
  Insecticidal effect on rice leafroller (Test Example 3), judged grade: A (100)

## Cc1c(NC(=O)c2ccccc2C(=O)NC(C)C)cccc1OC(F)(F)C(F)Cl (stereo not drawn) [compound 61]
[1]; [6]
  Insecticidal effect, Test Example 1: A (100)
[2]; [4]
  Insecticidal effect, Test Example 2: B (99-90)
[3]; [5]
  Insecticidal effect, Test Example 3: A (100)

## CCN(CC)C(=O)c1c(Cl)cccc1C(=O)Nc1ccc(C(F)(F)C(F)(F)F)cc1F [compound 1541]
[1]
  Insecticidal effect (Test Example 1), judged from mortality: A (100)
[2]; [4]
  Insecticidal effect (Test Example 2), judged from mortality: A (100)
[3]; [5]
  Insecticidal effect (Test Example 3), judged from mortality: A (100)

## Cc1cc(OC(F)F)ccc1NC(=O)c1ccc2ccccc2c1C(=O)NC(C)C [compound 819]
[1]
  Insecticidal effect on diamondback moth (Test Example 1), judged grade: A (100)
[2]
  Insecticidal effect on common cutworm (Test Example 2), judged grade: B (99-90)
[3]
  Insecticidal effect on rice leafroller (Test Example 3), judged grade: A (100)

## Cc1cc(C(F)(F)C(F)(F)F)ccc1NC(=O)c1cccc(I)c1C(=O)NC(C)(C)CCl [compound 1646]
[1]
  Insecticidal effect (Test Example 1), judged from mortality: A (100)
[2]; [4]
  Insecticidal effect (Test Example 2), judged from mortality: A (100)
[3]; [5]
  Insecticidal effect (Test Example 3), judged from mortality: A (100)

## Cc1cc(OCC(F)(F)C(F)F)ccc1NC(=O)c1cccc([N+](=O)[O-])c1C(=O)NC(C)C [compound 699]
[1]
  Insecticidal effect on diamondback moth (Test Example 1), judged grade: A (100)
[2]
  Insecticidal effect on common cutworm (Test Example 2), judged grade: A (100)
[3]
  Insecticidal effect on rice leafroller (Test Example 3), judged grade: D (79-50)

## Cc1cc(C(F)(C(F)(F)F)C(F)(F)F)ccc1NC(=O)c1cccc(C(F)(F)F)c1C(=O)NC(C)(C)C [compound 1232]
[1]; [7]
  Insecticidal effect, Test Example 1: A (100)
[2]; [8]
  Insecticidal effect, Test Example 2: A (100)
[3]; [9]
  Insecticidal effect, Test Example 3: A (100)

## CC(C)(C)NC(=O)c1c(Cl)cccc1C(=O)Nc1ccc2c(c1)OC(F)(F)C(F)(F)O2 [compound 1066]
[1]; [7]
  Insecticidal effect, Test Example 1: A (100)
[2]; [8]
  Insecticidal effect, Test Example 2: C (89-80)
[3]; [9]
  Insecticidal effect, Test Example 3: A (100)
